From article PMC6934184, “Selective DNA-PKcs inhibition extends the therapeutic index of localized radiotherapy and chemotherapy” (The Journal of Clinical Investigation, 2019) come the findings set out here.

SMILES strings stand for the structures.

This experiment addresses T1, CDK7/cyclin H/MNAT1 (Homo sapiens, UniProt P50613).
T1 construct: purchased Thermo Fisher Scientific (Life Technologies) SelectScreen
The experiment can be described thus: SelectScreen Adapta. Format: biochemical. The gist of the method: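 Percent values come from Thermo SelectScreen profiling of NU5455, combining activity and binding assays. CSF1R was run in Z'LYTE format at Km app ATP, and CAMK1 in Adapta format with ATP listed at 10.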

T1 sequence (P50613 whole entry): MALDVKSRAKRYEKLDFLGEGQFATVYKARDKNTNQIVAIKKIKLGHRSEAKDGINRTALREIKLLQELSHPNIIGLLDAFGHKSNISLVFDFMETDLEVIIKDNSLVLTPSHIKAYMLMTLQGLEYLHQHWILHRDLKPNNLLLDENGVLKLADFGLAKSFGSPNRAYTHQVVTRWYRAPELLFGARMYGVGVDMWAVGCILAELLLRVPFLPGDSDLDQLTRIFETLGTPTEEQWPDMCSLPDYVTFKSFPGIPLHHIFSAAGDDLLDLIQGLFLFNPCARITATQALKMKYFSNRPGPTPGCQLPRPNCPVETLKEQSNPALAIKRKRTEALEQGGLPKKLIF
T1 sequence (P51946 whole entry partner): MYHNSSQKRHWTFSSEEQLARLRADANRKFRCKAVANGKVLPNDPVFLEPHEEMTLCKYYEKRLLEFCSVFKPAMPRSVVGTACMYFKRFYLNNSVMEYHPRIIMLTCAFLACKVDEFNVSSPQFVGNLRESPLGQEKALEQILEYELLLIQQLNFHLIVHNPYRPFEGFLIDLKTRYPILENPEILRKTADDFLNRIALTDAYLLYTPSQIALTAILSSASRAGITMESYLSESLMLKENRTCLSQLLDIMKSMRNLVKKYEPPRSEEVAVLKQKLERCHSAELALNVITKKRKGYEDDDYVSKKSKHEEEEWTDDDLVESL
T1 sequence (P51948 whole entry partner): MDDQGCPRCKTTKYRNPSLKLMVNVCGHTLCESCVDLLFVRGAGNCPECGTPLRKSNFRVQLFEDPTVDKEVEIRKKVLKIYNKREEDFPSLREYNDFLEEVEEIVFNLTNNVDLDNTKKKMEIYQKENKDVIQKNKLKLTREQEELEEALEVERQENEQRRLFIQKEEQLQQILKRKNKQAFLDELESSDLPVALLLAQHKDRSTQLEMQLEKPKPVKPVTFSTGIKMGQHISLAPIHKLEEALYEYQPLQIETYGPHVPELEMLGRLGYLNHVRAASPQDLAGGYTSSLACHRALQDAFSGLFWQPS

Take `CN(C(=O)CN1CCOCC1)c1ccc2sc3c(-c4cccc5c(=O)cc(N6CC7CCC(C6)O7)oc45)cccc3c2c1` [NU5455]: 1 µM produced 5.3% inhibition.
